Test results reported in ChEMBL document CHEMBL1201862, “PubChem BioAssay data set” (2004).
Values joined by “and” are separate entries in the source; they are usually repeats but may differ in a detail not shown here. Equal entries are not always repeated. “Also recorded” adds a separate entry of the source. Active and inactive are the calls of the source.

How the values were obtained:
Cytochrome P450 3A4 = Cytochrome P450 3A4 (Homo sapiens, UniProt P08684);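 further: CYP3A4 tested as one member of a cytochrome P450 panel screen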
Sequence of Cytochrome P450 3A4 (P08684 whole entry): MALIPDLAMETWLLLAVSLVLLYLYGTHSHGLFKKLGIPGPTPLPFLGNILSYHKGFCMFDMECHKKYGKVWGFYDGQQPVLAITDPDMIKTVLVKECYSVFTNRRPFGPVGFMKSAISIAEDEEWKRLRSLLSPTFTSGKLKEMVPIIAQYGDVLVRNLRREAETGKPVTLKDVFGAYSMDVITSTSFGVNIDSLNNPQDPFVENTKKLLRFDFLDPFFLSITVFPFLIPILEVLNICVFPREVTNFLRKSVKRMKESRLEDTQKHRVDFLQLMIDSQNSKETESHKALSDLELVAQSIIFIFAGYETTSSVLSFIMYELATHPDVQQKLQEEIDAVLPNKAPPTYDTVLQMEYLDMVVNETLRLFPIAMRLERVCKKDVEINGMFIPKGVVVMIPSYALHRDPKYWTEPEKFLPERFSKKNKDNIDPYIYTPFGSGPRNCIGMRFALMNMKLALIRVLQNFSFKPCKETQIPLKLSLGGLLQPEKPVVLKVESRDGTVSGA

Cytochrome P450 2C9 = Cytochrome P450 2C9 (Homo sapiens, UniProt P11712)
Sequence of Cytochrome P450 2C9 (P11712 whole entry): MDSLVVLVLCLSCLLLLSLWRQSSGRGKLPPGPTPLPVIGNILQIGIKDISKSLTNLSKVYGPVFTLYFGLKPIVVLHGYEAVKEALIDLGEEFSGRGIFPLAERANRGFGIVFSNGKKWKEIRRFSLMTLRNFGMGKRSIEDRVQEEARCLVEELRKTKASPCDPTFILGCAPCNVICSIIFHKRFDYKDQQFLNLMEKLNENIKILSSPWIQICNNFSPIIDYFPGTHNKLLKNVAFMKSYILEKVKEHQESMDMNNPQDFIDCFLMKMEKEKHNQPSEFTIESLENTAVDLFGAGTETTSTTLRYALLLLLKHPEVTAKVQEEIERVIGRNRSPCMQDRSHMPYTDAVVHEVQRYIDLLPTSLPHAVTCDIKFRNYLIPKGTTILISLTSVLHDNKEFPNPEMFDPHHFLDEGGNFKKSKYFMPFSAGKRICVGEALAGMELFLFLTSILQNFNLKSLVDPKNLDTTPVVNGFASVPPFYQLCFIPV

Cytochrome P450 1A2 = biological target: T1, Cytochrome P450 1A2 (Homo sapiens, UniProt P05177);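 further: PubChem cytochrome P450 panel assay, CYP1A2 panel member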
T1 sequence (P05177 whole entry): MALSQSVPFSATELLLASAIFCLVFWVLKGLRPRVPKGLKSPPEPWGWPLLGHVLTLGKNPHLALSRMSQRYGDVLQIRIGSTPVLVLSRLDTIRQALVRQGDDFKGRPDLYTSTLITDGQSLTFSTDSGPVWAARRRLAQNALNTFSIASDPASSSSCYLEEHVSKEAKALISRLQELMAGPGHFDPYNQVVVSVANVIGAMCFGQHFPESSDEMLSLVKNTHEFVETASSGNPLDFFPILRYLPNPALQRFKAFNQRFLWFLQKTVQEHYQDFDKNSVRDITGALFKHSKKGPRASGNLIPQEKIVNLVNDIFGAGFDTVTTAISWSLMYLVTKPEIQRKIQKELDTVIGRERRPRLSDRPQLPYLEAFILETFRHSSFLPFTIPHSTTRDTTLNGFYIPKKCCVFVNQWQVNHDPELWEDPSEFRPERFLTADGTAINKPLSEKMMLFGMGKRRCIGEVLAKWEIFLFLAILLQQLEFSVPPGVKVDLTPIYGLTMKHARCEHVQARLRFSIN

Cytochrome P450 2C19 = Cytochrome P450 2C19 (Homo sapiens, UniProt P33261); assay: Cytochrome panel assay with activity outcomes. Panel member name: p450-cyp2c19 Compounds with AC50 equal or less than 10 uM are considered active; type: functional
Sequence of Cytochrome P450 2C19 (P33261 whole entry): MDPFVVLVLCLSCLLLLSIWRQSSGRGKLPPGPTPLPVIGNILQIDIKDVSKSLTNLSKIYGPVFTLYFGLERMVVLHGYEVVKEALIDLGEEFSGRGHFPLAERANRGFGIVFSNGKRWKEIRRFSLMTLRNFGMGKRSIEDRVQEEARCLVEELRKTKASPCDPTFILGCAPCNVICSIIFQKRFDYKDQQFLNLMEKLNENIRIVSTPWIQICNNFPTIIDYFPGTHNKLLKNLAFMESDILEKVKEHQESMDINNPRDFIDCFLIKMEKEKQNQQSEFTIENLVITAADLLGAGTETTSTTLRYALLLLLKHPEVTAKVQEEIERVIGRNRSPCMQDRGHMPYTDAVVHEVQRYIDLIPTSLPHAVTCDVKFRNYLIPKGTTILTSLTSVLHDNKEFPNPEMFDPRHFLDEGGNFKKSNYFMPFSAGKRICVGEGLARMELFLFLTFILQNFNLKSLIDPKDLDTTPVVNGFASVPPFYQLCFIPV

[1] = biological target: DNA damage-inducible transcript 3 protein (Mus musculus, UniProt P35639); type: functional, Cricetulus griseus
Sequence of DNA damage-inducible transcript 3 protein (P35639 whole entry): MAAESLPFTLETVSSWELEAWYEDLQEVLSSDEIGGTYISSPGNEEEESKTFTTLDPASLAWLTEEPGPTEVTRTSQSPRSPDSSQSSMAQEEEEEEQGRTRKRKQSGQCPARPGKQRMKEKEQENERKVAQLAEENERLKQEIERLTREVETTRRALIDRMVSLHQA

[2] = biological target: T2, Heat shock factor protein 1 (Mus musculus, UniProt P38532); assay: enhancement of HSF1-driven luciferase signal – cell-based, NIH3T3, luminescence, dose retest, confirmation (AID 435004); type: functional;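 further: stress induced by proteasome inhibitor MG132 added 30 min after compound; luciferase reporter driven by HSF1 response element in NIH3T3 cells; actives raise luminescence as potentiators of the MG132 stress response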
T2 sequence (P38532 whole entry): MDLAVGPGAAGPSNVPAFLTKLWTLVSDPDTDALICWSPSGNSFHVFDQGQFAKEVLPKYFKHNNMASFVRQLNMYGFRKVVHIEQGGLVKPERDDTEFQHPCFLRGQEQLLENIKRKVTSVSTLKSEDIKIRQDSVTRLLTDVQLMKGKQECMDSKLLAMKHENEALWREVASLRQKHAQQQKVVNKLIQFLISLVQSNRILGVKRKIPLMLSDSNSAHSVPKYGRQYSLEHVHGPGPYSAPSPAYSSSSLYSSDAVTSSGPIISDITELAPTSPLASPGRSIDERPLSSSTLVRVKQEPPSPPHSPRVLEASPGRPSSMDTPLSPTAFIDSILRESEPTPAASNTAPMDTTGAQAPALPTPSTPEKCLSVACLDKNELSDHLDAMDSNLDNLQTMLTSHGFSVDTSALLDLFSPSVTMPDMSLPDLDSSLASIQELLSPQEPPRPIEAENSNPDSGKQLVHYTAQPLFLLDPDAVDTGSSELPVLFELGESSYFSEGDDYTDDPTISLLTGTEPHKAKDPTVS

[3] = microbe, parasite or virus in culture; type: functional; settings: Mycobacterium tuberculosis
Protein RecA = biological target: T3, Protein RecA (Mycobacterium tuberculosis, UniProt P9WHJ3); assay: Fluorescence Cell-Free Homogeneous Dose Retest to Identify Inhibitors of RecA-Intein Splicing Activity. [Related pubchem assays (depositor defined):AID2097, AID2223, AID489010, AID492950]; type: functional
T3 sequence (P9WHJ3 whole entry): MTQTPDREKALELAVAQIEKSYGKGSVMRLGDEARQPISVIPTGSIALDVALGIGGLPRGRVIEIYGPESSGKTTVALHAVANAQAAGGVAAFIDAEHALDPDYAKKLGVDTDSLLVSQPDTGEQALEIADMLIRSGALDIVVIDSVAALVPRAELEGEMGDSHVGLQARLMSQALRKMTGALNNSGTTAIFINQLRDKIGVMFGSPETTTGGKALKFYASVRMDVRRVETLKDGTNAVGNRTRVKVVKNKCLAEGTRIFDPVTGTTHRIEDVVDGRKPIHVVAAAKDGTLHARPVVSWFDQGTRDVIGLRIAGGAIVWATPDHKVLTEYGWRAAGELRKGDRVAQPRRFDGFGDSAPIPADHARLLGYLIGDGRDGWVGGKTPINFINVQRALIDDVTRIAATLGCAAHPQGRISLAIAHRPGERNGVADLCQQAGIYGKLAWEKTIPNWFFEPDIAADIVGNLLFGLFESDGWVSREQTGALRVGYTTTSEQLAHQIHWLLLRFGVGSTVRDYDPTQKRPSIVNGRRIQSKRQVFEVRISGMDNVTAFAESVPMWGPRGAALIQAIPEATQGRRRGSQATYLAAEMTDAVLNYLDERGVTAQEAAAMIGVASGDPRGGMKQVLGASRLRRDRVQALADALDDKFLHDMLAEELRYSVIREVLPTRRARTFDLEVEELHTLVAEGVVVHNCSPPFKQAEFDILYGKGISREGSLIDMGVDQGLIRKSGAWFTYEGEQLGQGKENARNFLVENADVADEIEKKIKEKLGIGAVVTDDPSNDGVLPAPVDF

[4] = biological target: T4, Replicative DNA helicase DnaB (Mycobacterium tuberculosis, UniProt P9WMR3); assay: DnaB intein splicing inhibitors, dose response, biochemical, cell-free fluorescence (AID 449749); type: functional
T4 sequence (P9WMR3 whole entry): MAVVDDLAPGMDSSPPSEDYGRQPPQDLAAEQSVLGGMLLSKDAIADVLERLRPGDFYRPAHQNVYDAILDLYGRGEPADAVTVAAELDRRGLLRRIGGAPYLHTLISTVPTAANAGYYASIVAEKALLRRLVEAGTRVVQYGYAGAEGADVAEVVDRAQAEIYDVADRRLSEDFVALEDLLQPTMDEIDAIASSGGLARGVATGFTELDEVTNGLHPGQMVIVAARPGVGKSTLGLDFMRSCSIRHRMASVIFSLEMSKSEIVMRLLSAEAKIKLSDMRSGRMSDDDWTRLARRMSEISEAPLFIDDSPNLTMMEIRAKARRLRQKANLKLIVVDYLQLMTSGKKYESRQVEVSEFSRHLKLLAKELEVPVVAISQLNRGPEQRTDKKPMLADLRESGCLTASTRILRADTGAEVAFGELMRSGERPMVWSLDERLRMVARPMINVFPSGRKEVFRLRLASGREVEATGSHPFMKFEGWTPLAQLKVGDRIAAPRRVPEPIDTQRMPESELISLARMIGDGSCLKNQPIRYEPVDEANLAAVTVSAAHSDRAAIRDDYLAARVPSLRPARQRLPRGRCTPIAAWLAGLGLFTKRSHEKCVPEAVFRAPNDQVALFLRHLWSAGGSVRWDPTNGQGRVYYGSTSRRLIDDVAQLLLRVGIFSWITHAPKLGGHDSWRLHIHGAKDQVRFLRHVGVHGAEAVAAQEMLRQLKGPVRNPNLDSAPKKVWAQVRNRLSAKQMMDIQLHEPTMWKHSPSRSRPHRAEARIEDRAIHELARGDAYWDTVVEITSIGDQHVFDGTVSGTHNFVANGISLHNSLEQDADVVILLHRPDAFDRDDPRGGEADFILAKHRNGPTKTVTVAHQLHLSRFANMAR

[5] = biological target: T5, High affinity choline transporter 1 (Homo sapiens, UniProt Q9GZV3); assay: human choline transporter blockers, potency – cell-based, 5-point CRC, membrane potential dye, dose response (AID 504840); type: functional
T5 sequence (Q9GZV3 whole entry): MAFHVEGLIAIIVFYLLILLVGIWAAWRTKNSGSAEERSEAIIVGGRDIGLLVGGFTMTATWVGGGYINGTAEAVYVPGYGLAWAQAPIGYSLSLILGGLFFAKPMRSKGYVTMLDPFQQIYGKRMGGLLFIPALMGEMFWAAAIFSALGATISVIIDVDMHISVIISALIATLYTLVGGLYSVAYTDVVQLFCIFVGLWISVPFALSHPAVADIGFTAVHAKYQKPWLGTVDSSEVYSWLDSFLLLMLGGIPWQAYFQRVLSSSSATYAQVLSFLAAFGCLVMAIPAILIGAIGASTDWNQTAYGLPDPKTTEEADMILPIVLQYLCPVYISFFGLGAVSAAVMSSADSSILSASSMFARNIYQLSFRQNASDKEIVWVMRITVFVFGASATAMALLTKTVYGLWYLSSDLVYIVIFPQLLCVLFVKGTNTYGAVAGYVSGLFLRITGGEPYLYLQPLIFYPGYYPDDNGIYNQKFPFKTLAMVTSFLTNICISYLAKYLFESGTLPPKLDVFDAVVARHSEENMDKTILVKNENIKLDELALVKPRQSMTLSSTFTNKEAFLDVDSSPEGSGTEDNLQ

[6] = biological target: T6, Short transient receptor potential channel 4 (Mus musculus, UniProt Q9QUQ5); assay: block of DAMGO-driven TRPC4 calcium entry – cell-based, HEK293 TRPC4/mu-opioid, Fluo-4 calcium, dose response (AID 434942); type: functional;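 further: potency of inhibitors blocking the TRPC4 calcium response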
T6 sequence (Q9QUQ5 whole entry): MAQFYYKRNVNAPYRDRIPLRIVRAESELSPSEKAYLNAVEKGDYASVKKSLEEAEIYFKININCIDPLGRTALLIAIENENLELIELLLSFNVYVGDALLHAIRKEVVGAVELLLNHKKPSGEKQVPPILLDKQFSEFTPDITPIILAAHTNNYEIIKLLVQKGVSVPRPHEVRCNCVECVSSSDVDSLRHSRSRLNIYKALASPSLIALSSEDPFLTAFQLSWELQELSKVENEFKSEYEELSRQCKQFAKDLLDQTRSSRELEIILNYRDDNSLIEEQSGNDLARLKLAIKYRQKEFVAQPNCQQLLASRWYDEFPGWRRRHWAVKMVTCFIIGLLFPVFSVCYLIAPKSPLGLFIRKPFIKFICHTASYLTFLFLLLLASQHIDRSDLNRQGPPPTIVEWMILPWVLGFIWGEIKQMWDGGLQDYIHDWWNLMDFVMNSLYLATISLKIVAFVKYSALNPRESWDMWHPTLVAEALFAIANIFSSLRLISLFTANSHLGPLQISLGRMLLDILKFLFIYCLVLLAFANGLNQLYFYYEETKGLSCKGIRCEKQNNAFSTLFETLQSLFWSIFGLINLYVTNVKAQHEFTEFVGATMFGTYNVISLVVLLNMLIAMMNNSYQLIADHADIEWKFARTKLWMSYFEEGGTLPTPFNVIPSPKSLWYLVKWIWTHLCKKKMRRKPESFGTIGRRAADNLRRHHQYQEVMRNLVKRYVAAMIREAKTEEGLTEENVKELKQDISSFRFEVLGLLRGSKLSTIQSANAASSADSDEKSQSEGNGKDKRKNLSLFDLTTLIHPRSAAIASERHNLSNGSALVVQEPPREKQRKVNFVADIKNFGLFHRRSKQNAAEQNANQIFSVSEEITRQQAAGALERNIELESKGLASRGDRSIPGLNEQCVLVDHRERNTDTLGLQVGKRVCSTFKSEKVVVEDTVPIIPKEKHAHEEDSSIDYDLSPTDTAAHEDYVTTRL

[7] = decrease of insulin promoter-GFP reporter – imaging, high-content screening, mouse beta cells (AID 1628); type: functional; settings: MIN6
[8] = MIN6 cell viability loss – mouse insulinoma, cytotoxicity control, dose response (AID 2122); type: functional;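 further: confirmatory high-throughput counterscreen run to flag cytotoxic compounds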
INS1 = assay: INS-1E survival protection against cytokine death – cell-based, luminescence, retest, dose response (AID 449756); type: functional; settings: Rattus norvegicus, INS1;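 further: cell death triggered by IL-1 beta plus TNF-alpha plus IFN-gamma mixture; protective hits raise ATP signal compared with cytokine alone wells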
[9] = fluconazole-exposed Candida albicans growth modulators – fluorescence, retest, confirmation (AID 2467); type: functional, cell-based
[10] = NIH-3T3 fibroblast cytotoxicity, dose response, cytotoxicity control, cell-based, fluorescence, Alamar Blue, secondary assay (AID 2327); type: functional;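 further: NIH-3T3 mouse fibroblasts cultured with fluconazole at 8 µg/mL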

For Cc1ccccc1C(=O)N1CCN(c2ccc([N+](=O)[O-])c(NCc3ccco3)c2)CC1, the AC50 (Cytochrome P450 3A4) was “inconclusive”.
For Fc1ccc(C(c2ccc(F)cc2)N2CCN(C/C=C\c3ccccc3)CC2)cc1, the AC50 (Cytochrome P450 2C9) was 39.8 µM (inconclusive) and 20 µM (inconclusive) and 15.8 µM (inconclusive), the AC50 (Cytochrome P450 1A2) was 15.8 µM (inconclusive) (2×) and 25.1 µM (inconclusive) and the AC50 (Cytochrome P450 2C19) was “inactive”. For the same compound, the AC50 (Cytochrome P450 3A4) was “inactive; also recorded: inconclusive”.
With O=C(CCl)N1CCN2C(=O)c3ccccc3C12c1ccc(Cl)cc1 (configuration not stated) the “Absolute IC50 (CHOP)” value [1] was 10 µM, the EC50 [2] was 15 µM (active) and the CC50 [3] was 8.94 µM (active). The EC50 (Protein RecA) was 1.08 µM (active) and the AC50 [4] was 3.96 µM (active).
With Cn1c(-c2ccccc2)cnc1NCc1ccccc1 the IC50 [5] was 11.5 µM (active) and the EC50 [6] was 5.31 µM (active).
For CC(C)c1nnc(NC(=O)CCC(=O)N2CCN(c3ccccn3)CC2)s1, the AC50 (Cytochrome P450 2C9) was 7.08 µM (inconclusive), the AC50 (Cytochrome P450 2C19; read-out: AC50) was 28.2 µM (inconclusive) and the AC50 (Cytochrome P450 3A4) was “inconclusive”.
With c1ccc(CN2CCC3(CCc4ccccc43)CC2)cc1 the AC50 (Cytochrome P450 2C9) was 39.8 µM (inconclusive), the AC50 (Cytochrome P450 1A2) was 31.6 µM (inconclusive) and the AC50 (Cytochrome P450 3A4) was “inconclusive”.
For O=[N+]([O-])c1ccccc1N/N=C/c1cccc(O)c1O, the IC50 [7] was 2.74 µM (active) and the IC50 [8] was 3.75 µM (active).
With CC(C)(C)c1ccc(OCc2ccc(C(=O)N/N=C/c3ccc(O)c(O)c3)cc2)cc1 the AC50 (INS1) was 5.45 µM (active), the IC50 [7] was 3.14 µM (active) and the EC50 [9] was > 38 µM (not active). The EC50 [10] was 2.67 µM (inconclusive) and the IC50 [8] was 1.97 µM (active).
With COCCCN1CCN(c2nnc3n2-c2sc(Br)cc2C(c2ccccc2Cl)=NC3)CC1.CS(=O)(=O)O the AC50 (Cytochrome P450 2C19; read-out: AC50) was 7.08 µM (inconclusive) and the AC50 (Cytochrome P450 3A4) was “inconclusive”.
